According to publication PMC9230645, “Discovery of GSK3β Inhibitors through In Silico Prediction-and-Experiment Cycling Strategy, and Biological Evaluation” (Molecules, 2022):

How the values were obtained:
GSK3β [1] = molecular target: T1, GSK3β (Homo sapiens, UniProt P49841); experiment: GSK3β kinase assay (TR-FRET / Lance HTRF); type: biochemical; conditions: for inhibition at 0.5 µM: 0.5 μM compound; for inhibition at 5 µM: 5 μM compound; for IC50: Table 1, means ± SD (n = 2)
T1 construct: purchased Carna Biosciences
T1 sequence (P49841 whole entry): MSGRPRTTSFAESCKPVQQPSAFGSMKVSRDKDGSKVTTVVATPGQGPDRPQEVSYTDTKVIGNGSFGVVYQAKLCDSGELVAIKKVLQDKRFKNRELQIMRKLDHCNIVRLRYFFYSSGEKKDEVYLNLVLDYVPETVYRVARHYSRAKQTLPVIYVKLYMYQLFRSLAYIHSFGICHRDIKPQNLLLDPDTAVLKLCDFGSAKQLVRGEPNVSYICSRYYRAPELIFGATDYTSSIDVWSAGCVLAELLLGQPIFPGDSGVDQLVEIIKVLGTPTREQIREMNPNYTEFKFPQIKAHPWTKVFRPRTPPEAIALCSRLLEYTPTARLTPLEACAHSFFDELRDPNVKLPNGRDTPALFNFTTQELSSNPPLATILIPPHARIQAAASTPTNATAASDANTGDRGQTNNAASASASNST
Procedure: The GSK3β inhibitory activities of the virtually-selected 3000 compounds were screened by a Lance HTRF assay. At a concentration of 10 μM, the single-point screening signal-to-noise (S/N) ratio, Z factor, and Z’ factor of the assay was 7.3, 0.48 and 0.61, respectively.

Wnt/β-catenin signaling = experiment: HEK293 TOP flash reporter assay; type: cell-based; conditions: 5 µM, HEK293 TOP flash reporter cells, 18 h
Procedure: The pharmacologic inhibition of GSK3β’s activity can lead to β-catenin stabilization and subsequently activate Wnt/β-catenin signaling. To measure the inhibitory activities of the compounds selected in GSK3β enzyme-based high-throughput screening, these were treated in HEK293 TOP flash reporter cells at various concentrations.
The HEK293 reporter cells (HEK293 cells containing the chromosomally incorporated TOPflash gene) were provided by KY Choi (Yonsei University, Seoul, Korea). The HEK293 reporter cells were cultured in DMEM (Gibco) supplemented with 10% FBS (Gibco). To test the activates of GSK3β inhibition for hit compounds, HEK293 reporter cells were seeded into 96-well black polystyrene plates (Greiner Bio-One, Kremsmünster, Austria) at 1.5 × 10^4 cells per well and cultured for 24 h. Hit compounds, a positive control (CHIR99021, SelleckChem, Houston, TX, USA) or control (DMSO) were added to the wells at the indicated concentrations. After 18 h, the plates were assayed for firefly luciferase activity; relative reporter activity was determined after the data were normalized relative to the value of the WST-1 (Takara Korea Biomedical Inc., Seoul, Korea) cell viability analysis. Statistical analyses were performed using Prism 8 (GraphPad Software). […]

GSK3β [2] = molecular target: T1, GSK3β; experiment: Five-by-five-concentration kinetic analysis of GSK3β inhibition versus ATP (Lineweaver–Burk); type: biochemical
GSK3β [3] = molecular target: T1, GSK3β; experiment: Reversibility assay (dilution method); type: biochemical; conditions: pre-incubated with 1 µM for 30 min, then diluted
Procedure: Figure 3 In vitro assay. […] (b) Competitive inhibition by cpd1 and SB216873. Compounds were tested using 4-point 2-fold serial dilution, starting from 1 µM or 0.25 µM at 5 different concentration of ATP (200, 100, 50, 33.3, and 25 µM). (c) Reversibility test.
The in vitro enzyme TR-FRET (time-resolved fluorescence energy transfer) assays were performed in 384-well white plates (Greiner) at room temperature (25 °C) using an HTS system from Biomek FX (Beckman Coulter) and a Stella robot. The assay was performed in a final volume of 10 µL in a kinase buffer of 50 mM HEPES, pH 7.5, 1 mM EGTA, 10 mM MgCl2, 2 mM DTT, and 0.01% Tween-20. The 3000 virtually-selected compounds in the 5 mM DMSO stock were diluted into desired concentrations with kinase buffer. A total of 5 µL of GSK3β (Carna Biosciences, 0.5 ng/well) and 2.5 µL of compounds were added to the assay plates and, then, 2.5 µL of the ULight-GS Peptide (Ser641/pSer657, […](pS)ED, #TRF0131 PerkinElmer, 50 nM final concentration)/ATP mixture were added. […] After incubation for 1 h, the fluorescence signal was read in excitation at 320 nm with an emission at 665 nm with the Envision Multilabel Plate Reader (PerkinElmer). Experimental data from dose–response curves were analyzed by nonlinear regression analysis with GraphPad Prism, version 7.00 for Windows, and the IC50 values were obtained. […]

inhibition at 0.5 µM (GSK3β [1])	inhibition at 5 µM (GSK3β [1])	IC50 (GSK3β [1])	Ki (GSK3β [2]; 5 ATP concentrations (200, 100, 50, 33.3, 25 µM), read-out: slope inhibition constant K is)	inhibition pattern of GSK3β-catalyzed phosphorylation (GSK3β [2]; versus ATP)	enzyme-binding reversibility (GSK3β [3])	Compound	TOP flash activity induction (Wnt/β-catenin signaling)
61%	100%	–	–	–	–	Cn1cc(C2=C(c3ccc(Cl)cc3Cl)C(=O)NC2=O)c2ccccc21 [8 (SB216763), SB216763, reference compound]	–
100%	100%	37 ± 6 nM	41.8 nM	competitive	reversible	CCc1nccn1CCCNc1cc(-c2ccc(F)cc2)nc2ccnn12 [Compound 1, N-(3-(2-ethyl-1H-imidazol-1-yl)propyl)-5-(4-fluorophenyl)pyrazolo[1,5-a]pyrimidin-7-amine]	3.5 fold
78%	100%	211 ± 55 nM	–	–	–	Cc1nc[nH]c1CSCCNc1cc(-c2ccccc2)nc2ccnn12 [Compound 2]	–
57%	96%	347 ± 56 nM	–	–	–	Cc1c(CNc2cc(-c3ccccc3F)nc3ccnn23)cnn1C [Compound 4]	–
38%	95%	701 ± 118 nM	–	–	–	COCc1cc(NCc2nnn[nH]2)n2nccc2n1 [Compound 5]	–
45%	91%	730 ± 113 nM	–	–	–	CCc1cc(NCc2scnc2-c2ccccc2)n2nccc2n1 [Compound 6]	–
30%	90%	1030 ± 66 nM	–	–	–	Cc1cc(NCCCNc2cccnc2)n2nccc2n1 [Compound 7]	–
